Assay results taken from patent US11781955B2, “Photo-controlled removal of targets in vitro and in vivo” (The United States of America, as represented by the …, priority 2014, dated 2023).
Like-named read-outs stand apart in the source and are kept apart here.

Key:
[1] = cited from earlier work
[2] = variety of solvents, including water; cited from earlier work
[3] = IR700 fluorescence after NIR light exposure; type: physicochemical; details: 0.5 μM in DMF or PBS, laser 2-16 J/cm^2
Experimental: IR700 (0.5 μM) was suspended in DMF or PBS and exposed to NIR light with a laser (690 nm+/−4) at 2, 4, 8 or 16 J/cm^2. The resulting solution was visualized (in an eppendorf tube) with fluorescence at 700 nm. Some samples were not exposed to NIR light.

[4] = Solubility of silicon phthalocyanines; type: physicochemical; details: prior to exposure to NIR light (FIG. 5)
[5] = type: physicochemical
Experimental: The resulting solution was run on a 4-20% polyacrylamide gel, and stained with Comassie blue and visualized with light or fluorescence at 700 nm. Some samples were not exposed to NIR light. […] Some examples contained NaN3 (sodium azide), a reactive oxygen scavenger, or no oxygen (using an argon gas flash for 20 minutes). The resulting solution was run on a […] gel, and stained with Comassie blue and visualized with light or fluorescence at 700 nm. Some samples were not exposed to NIR light. […] Some examples contained excess oxygen (using 100% oxygen gas flash for 20 minutes). The resulting solution was run on a 4-20% SDS-PAGE gel, and stained with Comassie blue and visualized with light or fluorescence at 700 nm. Some samples were not exposed to NIR light.

A431-luc-GFP cells [6] = assay: Flow cytometry binding to A431-luc-GFP cells with blocking; details: 6 hr incubation at 37° C., blocking study
Experimental: (§1) Fluorescence arising from the cells after incubation with APC agents was measured using a flow cytometer (FACS Calibur, BD BioSciences, San Jose, CA, USA) and CellQuest software (BD BioSciences). Cells (1×10^5) were incubated with each APC for 6 hr at 37° C.

Balb/3T3-RFP cells [7] = assay: Flow cytometry binding to Balb/3T3-RFP cells; details: non-EGFR expressing cells
Experimental: as §1

A431-luc-GFP cells [8] = assay: In vitro PIT on 2D culture (PI staining, luciferase activity, GFP fluorescence); type: cell-based
Experimental: (§2) To detect the antigen specific localization of IR700 conjugates, fluorescence microscopy was performed (IX61 or IX81; Olympus America, Melville, NY, USA). Ten thousand cells were seeded on cover-glass-bottomed dishes and incubated for 24 hr. APC was then added to the culture medium at 10 μg/mL and incubated at 37° C. for 6 hr. The cells were then washed with PBS; Propidium Iodide (PI)(1:2000)(Life Technologies) and Cytox Blue (1:500)(Life Technologies), were used to detect dead cells. These were added to the media 30 min before observation. The cells were then exposed to NIR light and serial images were obtained. The filter was set to detect IR700 fluorescence with a 590-650 nm excitation filter, and a 665-740 nm band pass emission filter.
(§3) Two hundred thousand A431-luc-GFP cells were seeded into 24 well plates or twenty million cells were seeded onto a 10 cm dish and incubated for 24 hr. Medium was replaced with fresh culture medium containing 10 μg/mL of tra-IR700 which was incubated for 6 hr at 37° C. After washing with PBS, phenol red free culture medium was added. Then, cells were irradiated with a NIR laser, which emits light at 670 to 710 nm wavelength (L690-66-60; Marubeni America Co., Santa Clara, CA, USA). The actual power density (mW/cm2) was measured with an optical power meter (PM 100, Thorlabs, Newton, NJ, USA).
The cytotoxic effects of PIT with APC were determined by the luciferase activity and flow cytometric PI staining or GFP. For luciferase activity, 150 μg/mL of D-luciferin-containing media (Gold Biotechnology, St Louis, MO, USA) was administered to PBS-washed cells 1 hr after PIT, and analyzed on a bioluminescence imaging (BLI) system (Photon Imager; Biospace Lab, Paris, France). […]
(§4) Two hundred thousand cells were seeded on cover-glass-bottomed dishes and incubated for 12 hr. […] The GFP/RFP intensity was evaluated with total pixels with the same threshold in the same field of each spheroid20. […] Fluorescence from treated cells was also measured using a flow cytometer (FACS Calibur).

[9] = test system: A431-luc-GFP 3D spheroids; type: cell-based
Experimental: (§5) Spheroids were generated by the hanging drop method in which five thousand cells were suspended in 50 μL medium and then were dispensed into 96 well plates (3D Biomatrix Inc, Ann Arbor, MI, USA) following manufacturer's instructions (Sato et al., Mol. Oncol. 8, 620-632, 2014). Mixed spheroids were made with 5,000 cells of Balb/3T3-RFP and 500 cells of A431-luc-GFP (100:10)). After observation or treatment, spheroids were again incubated with the hanging drop plates containing new media. The volume of the spheroids was calculated with the formula: spheroid volume=4/3 π×radius^3
as §2
3D reconstructions of the spheroids were obtained with a confocal laser microscope (LSM5 meta, Carl Zeiss, Jena, Germany) after incubation for 30 min with Hoechst 33342 (1:500)(Life Technologies). Sections of spheroids were first fixed with 3.7% formaldehyde in PBS for 10 min at room temperature followed by embedding with OCT (SAKURA, Tokyo, Japan). Then, they were frozen at −80° C., and sliced at 10 μm with a cryotome (LEICA CM3050 S, Leica microsystems, Wetzlar, Germany). Analysis of the images was performed with ImageJ software (http://rsb.info.nih.gov/ij/).

A431-luc-GFP flank tumor = assay: In vivo PIT on flank tumor; parameters: species or system mouse; details: 100 μg, repeated PIT 50 J/cm2 day 1 and 100 J/cm2 day 2
Experimental: All in vivo procedures were conducted in compliance with the Guide for the Care and Use of Laboratory Animal Resources (1996), US National Research Council, and approved by the local Animal Care and Use Committee. Six- to eight-week-old female homozygote athymic nude mice were purchased from Charles River (NCI-Frederick). During procedures, mice were anesthetized with isoflurane.
Four million A431-luc-GFP cells were injected subcutaneously in both (right and left symmetrically) flanks of the mice, for the monoculture tumor model. […]
Controls included (1) only NIR light exposure at 50 J/cm2 on day 1 and 100 J/cm2 on day 2 to the right tumor; (2) no treatment for the left tumor. […] Mice were monitored daily, and serial image analysis was performed.
In vivo fluorescence images were obtained with a Pearl Imager (LI-COR Bioscience) for detecting IR700 fluorescence, and a Maestro Imager (CRi, Woburn, MA, USA) for GFP/RFP. […] The spectral fluorescence images consist of autofluorescence spectra and the spectra from GFP/RFP (tumor), which were then unmixed, based on the characteristic spectral pattern of GFP, using Maestro software (CRi). Regions of interest (ROIs) were manually drawn either on the flank tumor or over the abdominal region as appropriate to the model and fluorescence intensity was measured. […]

A431-luc-GFP cells [10] = assay: PIT on mixed 2D cell culture, target cells; type: cell-based; details: mixed 2D culture, repeated PIT 2 J/cm2
Experimental: as §3
(§6) The cytotoxic effects of PIT with APC were determined by the luciferase activity and flow cytometric PI staining or GFP. For luciferase activity, 150 μg/mL of D-luciferin-containing media (Gold Biotechnology, St Louis, MO, USA) was administered to PBS-washed cells 1 hr after PIT, and analyzed on a bioluminescence imaging (BLI) system (Photon Imager; Biospace Lab, Paris, France). For the flow cytometric assay, cells were trypsinized 1 hr after treatment and washed with PBS. […]
as §4

Balb/3T3-RFP cells [11] = assay: PIT on mixed 2D cell culture, non-target cells; type: cell-based; details: mixed 2D culture, repeated PIT 2 J/cm2
Experimental: as §3, §6, §4

A431-luc-GFP cells [12] = assay: PIT on mixed 3D spheroid, target cells; type: cell-based; details: repeated PIT 2 J/cm2
Experimental: as §5, §2

Balb/3T3-RFP cells [13] = assay: PIT on 3D spheroids, non-target cells; type: cell-based
Experimental: as §5, §2

A431-luc-GFP cells [14] = assay: In vivo PIT on mixed flank tumor, target cells; parameters: species or system mouse; details: repeated PIT
Experimental: (§7) Four million A431-luc-GFP cells were injected subcutaneously in both (right and left symmetrically) flanks of the mice, for the monoculture tumor model. For the mixed tumor model, mixed cells of 4×10^6 A431-luc-GFP cells and 4×10^5 Balb/3T3-RFP cells (100:10) were injected subcutaneously in the both (right and left symmetrically) flanks.
(§8) Controls included (1) only NIR light exposure at 50 J/cm2 on day 1 and 100 J/cm2 on day 2 to the right tumor; (2) no treatment for the left tumor. These therapies were performed only once at day 7 after cell implantation. Mice were monitored daily, and serial image analysis was performed.
(§9) In vivo fluorescence images were obtained with a Pearl Imager (LI-COR Bioscience) for detecting IR700 fluorescence, and a Maestro Imager (CRi, Woburn, MA, USA) for GFP/RFP. […] The spectral fluorescence images consist of autofluorescence spectra and the spectra from GFP/RFP (tumor), which were then unmixed, based on the characteristic spectral pattern of GFP, using Maestro software (CRi). Regions of interest (ROIs) were manually drawn either on the flank tumor or over the abdominal region as appropriate to the model and fluorescence intensity was measured.
(§10) For BLI, D-luciferin (15 mg/mL, 200 μL) was injected intraperitoneally and the mice were analyzed with a Photon Imager for luciferase activity at day 6. […]

Balb/3T3-RFP cells [15] = assay: In vivo PIT on mixed flank tumor, non-target cells; parameters: species or system mouse; details: repeated PIT
Experimental: as §7, §8, §9, §10

Oc1cccc(-c2c3nc(c(-c4cccc(O)c4)c4ccc([nH]4)c(-c4cccc(O)c4)c4nc(c(-c5cccc(O)c5)c5ccc2[nH]5)CC4)C=C3)c1 [Foscan®, meta-tetrahydroxyphenylchlorin]
extinction coefficient ([1]; at 652 nm): 22000 M⁻¹ cm⁻¹

C=Cc1c(C)c2cc3nc(c(CC(=O)N[C@@H](CC(=O)[O-])C(=O)[O-])c4[nH]c(cc5nc(cc1[nH]2)C(C)=C5CC)c(C)c4C(=O)[O-])[C@@H](CCC(=O)[O-])[C@@H]3C.[Na+].[Na+].[Na+].[Na+] [NPe6/Laserphyrin®, mono-L-aspartylchlorin e6]
extinction coefficient ([1]; at 654 nm): 40000 M⁻¹ cm⁻¹

O[Si]1(O)n2c3c4ccccc4c2N=C2N=C(N=c4c5ccccc5c(n41)=NC1=NC(=N3)c3ccccc31)c1ccccc12 [silicon phthalocyanine dihydroxide]
solubility [2]: no measurable solubility

IRDye® 700DX [IR700]
fluorescence after NIR exposure (photobleaching) [3]: still fluorescent even after exposure to strong NIR light | solubility [4]: can dissolve in different aqueous and organic solvents | extinction coefficient ([1]; at the absorption maximum of 689 nm): 210000 M⁻¹ cm⁻¹

Pan-IR700: Panitumumab (Vectibix), anti-human EGFR IgG2 MAb, conjugated to IR700; about 3 IR700 per antibody
degradation by NIR in excess oxygen [5]: less degradation | oxygen dependence of cleavage by NIR ([5]; 8 or 16 J/cm^2, no treatment, NaN3 or no oxygen (argon)): oxygen independent | cleavage of conjugate after NIR light ([5]; PBS, LED or laser 690 nm, 2-16 J/cm^2): broken down or cleaved after exposure to NIR light | binding to cells (FACS) (A431-luc-GFP cells [6]): Specific binding | binding to cells (FACS) (Balb/3T3-RFP cells [7]): no binding | bioluminescence (BLI) and GFP fluorescence intensity after PIT (A431-luc-GFP cells [8]; 2D culture, 1 hr after PIT): decrease in bioluminescence (BLI) and GFP fluorescence intensity also in a light-dose dependent manner | cell killing (dead PI staining) (A431-luc-GFP cells [8]; 2D culture, NIR light dose series): killed in a light-dose dependent manner | cell death by microscopy (A431-luc-GFP cells [8]; 6 hr incubation, NIR 2 J/cm2, 1 hr after PIT): Necrotic cell death was observed | permeation into spheroids (IR700 fluorescence) [9]: gradually permeated into spheroids from the perimeter | eradication of cells in 3D spheroid ([9]; daily repeated PIT): complete eradication of A431-luc-GFP cells within spheroids | cell death in 3D spheroid after PIT ([9]; single PIT, 2 J/cm2): necrotic cell death in the APC-bound layer of A431-luc-GFP cells | spheroid size after PIT ([9]; target 3D spheroid): clearly decreased in size | GFP signal and luciferase activity of tumor (A431-luc-GFP flank tumor): disappearance of both GFP signal and luciferase activity | target cell elimination (A431-luc-GFP cells [10]): complete target cell elimination | effect on non-target cells (Balb/3T3-RFP cells [11]): without affecting the non-target cell growth | target cell elimination (A431-luc-GFP cells [12]): complete target cell elimination from the mixed 3D cell culture | effect on non-target cells (Balb/3T3-RFP cells [13]; mixed 3D spheroid, repeated PIT 2 J/cm2): without damaging non-target cells | change of non-target-expressing 3D spheroid with PIT (Balb/3T3-RFP cells [13]; spheroid of non-target cells only): no remarkable change | target cell elimination from mixed tumors (A431-luc-GFP cells [14]): complete elimination of target-expressing cells from mixed tumors in vivo | damage to non-target cells in mixed tumors (Balb/3T3-RFP cells [15]): minimal damage to non-target cells

Photofrin®
extinction coefficient ([1]; at 630 nm): 1200 M⁻¹ cm⁻¹
